{"source": "paper PMC8452301", "about": "(CPT: Pharmacometrics & Systems Pharmacology, 2021)", "key": {"[1]": {"type": "in vivo, human", "conditions": "observed"}, "[2]": {"experiment": "Physicochemical input parameters", "conditions": "high solubility–high permeability"}, "[3]": {"conditions": "cited from earlier work"}, "[4]": {"conditions": "cited from earlier work", "remark": "listed apart in the source"}, "[5]": {"conditions": "cited from earlier work", "remark": "listed apart in the source"}, "[6]": {"conditions": "4-mg single dose, geometric mean, observed N=7"}, "[7]": {"conditions": "4-mg single dose, mean, observed N=7"}, "[8]": {"conditions": "4-mg single dose, median, observed N=7"}, "[9]": {"conditions": "4-mg, q.d. dosing, geometric mean, observed N=5"}, "[10]": {"conditions": "4-mg, q.d. dosing, mean, observed N=5"}, "[11]": {"conditions": "9-mg q.d. dosing, geometric mean, observed N=6"}, "[12]": {"conditions": "9-mg q.d. dosing, mean, observed N=6"}, "[13]": {"conditions": "9-mg q.d. dosing, median, observed N=6"}, "[14]": {"conditions": "9-mg single dose, geometric mean, observed N=9"}, "[15]": {"conditions": "9-mg single dose, mean, observed N=9"}, "[16]": {"conditions": "9-mg single dose, median, observed N=9"}, "[17]": {"conditions": "4-mg single dose, no inhibitor, Cohort A n=17, mean"}, "[18]": {"conditions": "4-mg with 200-mg q.d. itraconazole, Cohort C, geometric mean"}, "[19]": {"conditions": "4-mg with 200-mg q.d. itraconazole, Cohort C, mean"}, "[20]": {"conditions": "4-mg with 400-mg q.d. fluconazole, Cohort B, geometric mean"}, "[21]": {"conditions": "4-mg with 400-mg q.d. fluconazole, Cohort B, mean"}}, "note": "Where two headings read alike, the source gives them in different places.", "data": [{"compound": "COc1cc(OC)cc(N(CCNC(C)C)c2ccc3ncc(-c4cnn(C)c4)nc3c2)c1", "note": "[erdafitinib]", "values": [{"measurement": "difference in total exposure, patients with cancer versus healthy subjects", "setting": "[1]", "value": "~ 1.4 fold"}, {"measurement": "Biopharmaceutics Classification System class", "setting": "[2]", "value": "Class 1"}, {"measurement": "AUC0–72", "setting": "[3]; [6]", "value": 6022, "unit": "ng·h/mL"}, {"measurement": "Cmax", "setting": "[3]; [6]", "value": 163, "unit": "ng/mL"}, {"measurement": "AUC0–72", "setting": "[3]; [7]", "value": 6743, "unit": "ng·h/mL"}, {"measurement": "Cmax", "setting": "[3]; [7]", "value": 182, "unit": "ng/mL"}, {"measurement": "AUC0–72", "setting": "[3]; [8]", "value": 6360, "unit": "ng·h/mL"}, {"measurement": "Cmax", "setting": "[3]; [8]", "value": 173, "unit": "ng/mL"}, {"measurement": "AUCtau", "setting": "[3]; [9]", "value": "12,064 ng·h/ml"}, {"measurement": "Cmax", "setting": "[3]; [9]", "value": 630, "unit": "ng/mL"}, {"measurement": "AUCtau", "setting": "[3]; [10]", "value": "13,516 ng·h/ml"}, {"measurement": "Cmax", "setting": "[3]; [10]", "value": 675, "unit": "ng/mL"}, {"measurement": "Cmax", "setting": "[3]; 4-mg, q.d. dosing, median, observed N=5", "value": 569, "unit": "ng/mL"}, {"measurement": "AUCtau", "setting": "[3]; [11]", "value": "36,608 ng·h/ml"}, {"measurement": "Cmax", "setting": "[3]; [11]", "value": 1911, "unit": "ng/mL"}, {"measurement": "AUCtau", "setting": "[3]; [12]", "value": "39,587 ng·h/ml"}, {"measurement": "Cmax", "setting": "[3]; [12]", "value": 2018, "unit": "ng/mL"}, {"measurement": "AUCtau", "setting": "[3]; [13]", "value": "30,594 ng·h/ml"}, {"measurement": "Cmax", "setting": "[3]; [13]", "value": 1765, "unit": "ng/mL"}, {"measurement": "AUC0–72", "setting": "[3]; [14]", "value": "15,091 ng·h/ml"}, {"measurement": "Cmax", "setting": "[3]; [14]", "value": 390, "unit": "ng/mL"}, {"measurement": "AUC0–72", "setting": "[3]; [15]", "value": "17,564 ng·h/ml"}, {"measurement": "Cmax", "setting": "[3]; [15]", "value": 431, "unit": "ng/mL"}, {"measurement": "AUC0–72", "setting": "[3]; [16]", "value": "16,053 ng·h/ml"}, {"measurement": "Cmax", "setting": "[3]; [16]", "value": 389, "unit": "ng/mL"}, {"measurement": "unchanged drug recovered in feces", "setting": "[4]; over ~ 16 days", "value": 17, "unit": "%"}, {"measurement": "unchanged drug recovered in feces", "setting": "[4]; within the first 3 days", "value": "< 5 % of the dose"}, {"measurement": "AUCinf", "setting": "[5]; 4-mg single dose, no inhibitor, Cohort A n=17, geometric mean", "value": 8777, "unit": "ng·h/mL"}, {"measurement": "AUCinf", "setting": "[5]; [17]", "value": 9145, "unit": "ng·h/mL"}, {"measurement": "Cmax", "setting": "[5]; [17]", "value": 138, "unit": "ng/mL"}, {"measurement": "AUCinf", "setting": "[5]; [18]", "value": "11,785 ng·h/ml"}, {"measurement": "Cmax", "setting": "[5]; [18]", "value": 140, "unit": "ng/mL"}, {"measurement": "AUCinf", "setting": "[5]; [19]", "value": "12,228 ng·h/ml"}, {"measurement": "Cmax", "setting": "[5]; [19]", "value": 145, "unit": "ng/mL"}, {"measurement": "AUCinf", "setting": "[5]; [20]", "value": "13,060 ng·h/ml"}, {"measurement": "Cmax", "setting": "[5]; [20]", "value": 162, "unit": "ng/mL"}, {"measurement": "AUCinf", "setting": "[5]; [21]", "value": "14,233 ng·h/ml"}, {"measurement": "Cmax", "setting": "[5]; [21]", "value": 177, "unit": "ng/mL"}]}]}
